Ends that are not written are not given here.
What was measured:
[1] = tested on: Cx43 gap junction formation; experiment: Cx43 gap junction formation in cultured neonatal myocytes; format: cell-based, rat; details: 30 μM peptide, 5 days in culture, relative to non-active control peptide and PBS
Procedure: Myocytes from neonatal rat hearts were grown until forming a near-confluent monolayer on a tissue culture dish according to standard protocols. The cultures were subsequently allowed to culture for a further 5 days in culture medium comprising (a) 30 μM ACT 1 peptide (SEQ ID NO:2), (b) 30 μM non-active control peptide (SEQ ID NO:55), or (c) phosphate buffered saline (PBS) containing no ACT peptide or control. Culture media with added peptides or vehicle control was changed every 24 hours during the experiment. […] This increase in Cx43 gap junction formation in response to ACT peptide is shared by a number of cell types expressing Cx43.
Myocytes from neonatal rat hearts were grown until forming a near-confluent monolayer on a tissue culture dish according to standard protocols. The cultures were subsequently allowed to culture for a further 5 days culture medium comprising 30 μM ACT 1 peptide (SEQ ID NO:2), 30 μM non-active control peptide (SEQ ID NO:55), or phosphate buffered saline (PBS) containing no ACT peptide or control peptide. The non-active control peptide comprises a polypeptide with a carboxy terminus in which the ACT peptide sequence has been reversed. […]

[2] = tested on: 4 mm long incisional skin injury; experiment: Incisional skin injury in neonatal mouse; format: in vivo
Procedure: Neonatal mouse pups were desensitized using hypothermia. A 4 mm long incisional skin injury was made using a scalpel through the entire thickness of the skin (down to the level of the underlying muscle) in the dorsal mid line between the shoulder blades. 30 μl of a solution of 20% pluronic (F-127) gel containing either no (control) or dissolved ACT 1 peptide (SEQ ID NO: 2) at a concentration of 60 μM was then applied to the incisional injuries. Control or ACT peptide containing gel was applied subsequently 24 hours after the initial application. No further application of control and ACT peptide containing gel was made after the second application. […] These differences in inflammation, swelling and healing between the control and ACT peptide and control treated injury persisted at the 72 (c, d) and 96 (e, f) hour time points. […] Note that images of the same injury on the same animal are shown at the different time points during the healing time course. Neonatal mouse pups were desensitized using hypothermia. A 4 mm long incisional skin injury was made using a scalpel through the entire thickness of the skin (down to the level of the underlying muscle) in the dorsal mid line between the shoulder blades. 30 μl of a solution of 20% pluronic (F-127) gel containing either no (control) or dissolved ACT 1 peptide (SEQ ID NO:2) at a concentration of 60 μM was then applied to the incisional injuries. Pluronic gel has mild surfactant properties that may aid in the uniform dispersion of the ACT peptide in micelles. More importantly, 20% pluronic gel stays liquid at temperatures below 15° C., but polymerizes at body temperature (37° C.). This property of pluronic gel probably aided in the controlled release of peptide into the tissue at the site of incisional injury, protecting the peptide from break-down in the protease-rich environment of the wound and also enabling active concentrations of the peptide to maintained over prolonged periods. Control or ACT peptide containing gel was applied subsequently 24 hours after the initial application. […]

[3] = tested on: NIH-3T3 cells; experiment: In vitro scratch injury of NIH-3T3 monolayer (repopulation, PCNA immunolabeling); format: cell-based; details: 30 μM
Procedure: An NIH-3T3 monolayer was pre-treated with ACT 1 peptide (SEQ ID NO:2) for 24 hrs, and “scratch-injured” with a p200 pipette tip. The “scratch injury” was subsequently allowed to “heal” for 24 hours in the presence of (a, b) 30 μM ACT 1 peptide (SEQ ID NO:2), (c, d) 30 μM non-active control peptide (SEQ ID NO: 55), or (e, f) vehicle control solution containing no ACT peptide or control peptide. […] The repopulation of the “scratch injury” occurs in part via migration of the transformed cells crawling into the “scratch injury” area. Figures (b), (d) and (f) show proliferating cell nuclear antigen (PCNA) immunolabeling of cells in the “scratch injury” or at the injury edge.
NIH-3T3 fibroblasts were “scratch injured” and subject to the continuous presence of 30 μM ACT 1 peptide (SEQ ID NO:2) for 24 hours or the control conditions as outlined in FIG. 2. […] The cells have been labeled with fluorescent phalloidin to aid visualization. ACT peptide-treated cells show low levels of repopulation of the scratch injury area (white double headed arrows).
NIH-3T3 cells were grown over 2-3 days until forming a near-confluent monolayer on a tissue culture dish according to standard protocols and the monolayer was then pre-treated with ACT 1 peptide (SEQ ID NO:2) for 24 hrs, and “scratch-injured” with a p200 pipette tip. The “scratch injury” was subsequently allowed to repopulate for 24 hours in the presence of 30 μM ACT 1 peptide (SEQ ID NO:2) dissolved in the culture media (FIG. 2a, b) or in presence of two control conditions (FIG. 2c-f). In the first control condition, the “scratch-injured” cells were allowed to repopulate for 24 hours in the presence of a non-active control peptide (as in FIG. 1) dissolved in the culture media at a concentration of 30 μM (FIG. 2c, d). In the second control condition, phosphate buffered saline (PBS) was added to the culture media and the “scratch-injured” cells were allowed to repopulate in the presence of this vehicle control solution containing no ACT peptide or control peptide (FIG. 2e, f). […] The repopulation of the “scratch injury” occurs in part via migration of the transformed cells crawling into the “scratch injury” area. Figures (FIGS. 2b, d, and f) show proliferating cell nuclear antigen (PCNA) immunolabeling of cells in the “scratch injury” or at the injury edge.
The cells were labeled with fluorescent phalloidin to aid visualization. ACT peptide-treated cells show low levels of repopulation of the scratch injury area (white double headed arrows).

RPRPDDLEI (not fully specified (N-terminus)) [ACT 1, carboxy-terminal 9 amino acids of human Cx43; amino terminus biotinylated in tests]
extent of Cx43 gap junction formation between myocytes [1]: greatly increased | appearance of injury (closure, inflammation, swelling, healing) ([2]; 60 μM in 20% pluronic (F-127) gel, 30 μl, applied at 0 and 24 hours, by 48 hours, vs gel without peptide): significantly more closed, less inflamed, less swollen | differences in inflammation, swelling and healing versus control ([2]; 60 μM in 20% pluronic gel, 72 and 96 hour time points): persisted | scar appearance of wound ([2]; 60 μM in 20% pluronic gel, at 7 days): smoother and less scarred appearance | proliferating cell nuclear antigen (PCNA) immunolabeling of cells in the scratch injury or at the injury edge ([3]; 24 hours after scratch): only low luminosity consistent with background and non-proliferation | % area of cells repopulating the scratch injury after 24 hours ([3]; 24 hours, vs control conditions, p<0.000001): reduction of cells in the injury area in the presence of ACT peptide is dramatic

— patent US7888319B2, “Compositions and methods for promoting wound healing and tissue regeneration” (MUSC Foundation for Research Development, priority 2004, dated 2011)
